Measured values reported in the NIST ThermoML archive (doi:10.1021/acs.jced.8b00780).
Numbers after ± are expanded uncertainties.

Conditions: Crystal; DTA

Normal melting temperature: 231.98 ± 1.1 °C
SMILES: C=C1C[C@@]23CC[C@H]4[C@@](C)(CCC[C@@]4(C)C(=O)O[C@@H]4O[C@H](CO)[C@@H](O)[C@H](O)[C@H]4O)[C@@H]2CC[C@]1(O[C@@H]1O[C@H](CO)[C@@H](O)[C@H](O[C@@H]2O[C@H](CO)[C@@H](O)[C@H](O)[C@H]2O)[C@H]1O[C@@H]1O[C@H](CO)[C@@H](O)[C@H](O)[C@H]1O)C3 [rebaudioside A]
